Patent US20230210999A1, “TARGETED PROTEASE DEGRADATION (TED) PLATFORM” (EUBULUS BIOTHERAPEUTICS INC., priority 2020, published 2023)
Where two headings read alike, the source gives them in different places.

Key:
U-87MG cells = assay: Cell proliferation experiment, U-87MG; format: cell-based; conditions: Homo sapiens, 72 h, read-out: Inhibitory activity IC50 of tested compounds on U-87MG cells
Protocol: (§1) Reagents: RPMI-1640 medium, McCoy's 5A medium, IMDM medium, MEM medium, L-15 medium, fetal bovine serum. Penicillin-Streptomycin double antibody, trypsin, etc., 2-mercaptoethanol, NEAA, pyruvate, etc.
(§2) The cells were cultured in conventional ways, and the cells should be passed at least 2 generations before plating. Cells at the logarithmic growth phase were collected, prepared into single cell suspensions and counted. The concentration of cells was adjusted to the desired concentration, and cells were inoculated into a 96-well cell culture plate at 100 μl per well. 100 μL of complete medium of the test compound were added to each well, set up 2 duplicate wells for each concentration, and diluted with a 5-fold gradient, and continued to culture for 72 h. All cells were subjected to IC50 test for corresponding samples. The experimental results are shown in Test Example 4.
(§3) The fluorescence intensity of each well was detected using the Alarm blue method, and IC50 was calculated.
(§4) IC50 was calculated according to the following formula:
(§5) Y=Max+(Min−Max)/[1+(X/IC50)×Slope]
(§6) wherein Min, Max and Slope represent the minimum, maximum and slope respectively.

NCIH82 cells = assay: Cell proliferation experiment, NCI-H82; format: cell-based, human; conditions: Homo sapiens
Procedure, shortened: (§7)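 IC50 values derive from a four-parameter logistic fit of Alamar blue fluorescence. Cells in logarithmic growth, plated in 96-well format, are treated for 72 h with compound diluted 5-fold serially, two wells per concentration.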

MV4;11 cells = assay: Cell proliferation experiment (Alamar blue, 72 h), MV4;11; format: cell-based, human; conditions: Homo sapiens
Procedure, shortened: as §7

Daudi cells = assay: Cell proliferation experiment, Daudi; format: cell-based, human; conditions: Homo sapiens, Daudi
Procedure, shortened: as §7

HT-29 cells = assay: Cell proliferation experiment, HT-29; format: cell-based; conditions: Homo sapiens, read-out: Inhibitory activity IC50 of tested compounds on HT-29 cells
Protocol: as §1, §2, §3, §4, §5, §6

PC-3 = assay: Cell proliferation experiment, PC-3; format: cell-based, human; conditions: Homo sapiens, PC-3, PC-3 cells; read-out: Inhibitory activity IC50 on PC-3
Procedure, shortened: as §7

MDA-MB-231 cells = assay: Cell proliferation experiment, MDA-MB-231; format: cell-based, human; conditions: Homo sapiens, MDA-MB-231, MDA-MB-231 cells; read-out: Inhibitory activity IC50 on MDA-MB-231
Procedure, shortened: as §7

[1] = NCI-H82, 72 h, NCIH82 cells, 72 h, read-out: Inhibitory activity IC50 of tested compounds on NCIH82 cells
[2] = MV4-11, 72 h, MV4;11 cells, 72 h, read-out: Inhibitory activity IC50 of tested compounds on MV4;11 cells
[3] = 72 h, Daudi cells, 72 h, read-out: Inhibitory activity IC50 of tested compounds on Daudi cells
[4] = NCI-H82, 72 h, read-out: Inhibitory activity IC50 of tested compounds on NCIH82 cells
[5] = MV4-11, 72 h, read-out: Inhibitory activity IC50 of tested compounds on MV4;11 cells
[6] = 72 h, read-out: Inhibitory activity IC50 of tested compounds on Daudi cells

Row | Compound | IC50 (U-87MG cells; U-87MG cells) [µM] | IC50 (NCIH82 cells; [1]) [µM] | IC50 (MV4;11 cells; [2]) [µM] | IC50 (Daudi cells; [3]) [µM] | IC50 (HT-29 cells; HT-29 cells, 72 h) [µM] | further results
1 | CC[C@@H]1C(=O)N(C)c2cnc(Nc3ccc(C(=O)NCCCC(N)C(=O)Nc4cccc5c4CN(C4CCC(=O)NC4=O)C5=O)cc3OC)nc2N1C1CCCC1 (stereo in doubt) [Compound 856] | > 1 | > 1 | 0.1 to 1 | > 1 | – | –
2 | CC[C@@H]1C(=O)N(C)c2cnc(Nc3ccc(C(=O)NCCOCCOCCOCCNCCC(=O)N[C@H](C(=O)N4C[C@H](O)C[C@H]4C(=O)NCc4ccc(-c5scnc5C)cc4)C(C)(C)C)cc3OC)nc2N1C1CCCC1 [Compound 850] | > 1 | > 1 | > 1 | > 1 | > 1 | –
3 | CC[C@@H]1C(=O)N(C)c2cnc(Nc3ccc(C(=O)NCCOCCNCC(=O)N[C@H](C(=O)N4C[C@H](O)C[C@H]4C(=O)NCc4ccc(-c5scnc5C)cc4)C(C)(C)C)cc3OC)nc2N1C1CCCC1 [Compound 851] | – | – | – | – | – | IC50 (U-87MG cells; U-87 MG): > 1 µM; IC50 (NCIH82 cells; [4]): > 1 µM; IC50 (MV4;11 cells; [5]): 0.1 to 1 µM; IC50 (Daudi cells; [6]): > 1 µM; IC50 (HT-29 cells; HT-29, 72 h): > 1 µM
4 | CC[C@@H]1C(=O)N(C)c2cnc(Nc3ccc(C(=O)NC4CCN(CCNCCOCC(=O)N[C@H](C(=O)N5C[C@H](O)C[C@H]5C(=O)NCc5ccc(-c6scnc6C)cc5)C(C)(C)C)CC4)cc3OC)nc2N1C1CCCC1 [Compound 852] | > 1 | > 1 | > 1 | > 1 | > 1 | –
5 | CC[C@@H]1C(=O)N(C)c2cnc(Nc3ccc(C(=O)NCCOCCNCCC(=O)N[C@H](C(=O)N4C[C@H](O)C[C@H]4C(=O)NCc4ccc(-c5scnc5C)cc4)C(C)(C)C)cc3OC)nc2N1C1CCCC1 [Compound 853] | > 1 | > 1 | > 1 | > 1 | > 1 | –
6 | CC[C@@H]1C(=O)N(C)c2cnc(Nc3ccc(C(=O)NCCOCCOCCOCCNCC(=O)N[C@H](C(=O)N4C[C@H](O)C[C@H]4C(=O)NCc4ccc(-c5scnc5C)cc4)C(C)(C)C)cc3OC)nc2N1C1CCCC1 [Compound 854] | – | – | – | – | – | IC50 (U-87MG cells; U-87 MG): > 1 µM; IC50 (NCIH82 cells; [4]): > 1 µM; IC50 (MV4;11 cells; [5]): 0.1 to 1 µM; IC50 (Daudi cells; [6]): > 1 µM; IC50 (HT-29 cells; HT-29, 72 h): > 1 µM
7 | CC[C@@H]1C(=O)N(C)c2cnc(Nc3ccc(C(=O)NC4CCN(CCOCCNC5CN(c6cccc7c6C(=O)N(C6CCC(=O)NC6=O)C7=O)C5)CC4)cc3OC)nc2N1C1CCCC1 (some centres unmarked) [Compound 857] | 0.5 to 1 | ≤ 1 | ≤ 0.1 | 0.1 to 1 | > 1 | –
8 | CC[C@@H]1C(=O)N(C)c2cnc(Nc3ccc(C(=O)NC4CCN(CCOCCNCCC(=O)NC(C(=O)N5C[C@H](O)C[C@H]5C(=O)NCc5ccc(-c6scnc6C)cc5)C(C)(C)C)CC4)cc3OC)nc2N1C1CCCC1 (some centres unmarked) [Compound 858] | > 1 | > 1 | > 1 | > 1 | > 1 | –
9 | CC[C@@H]1C(=O)N(C)c2cnc(Nc3ccc(C(=O)NC4CCN(CCOCCNCC(=O)NC(C(=O)N5C[C@H](O)C[C@H]5C(=O)NCc5ccc(-c6scnc6C)cc5)C(C)(C)C)CC4)cc3OC)nc2N1C1CCCC1 (some centres unmarked) [Compound 859] | – | – | – | – | – | IC50 (U-87MG cells; U-87 MG): > 1 µM; IC50 (NCIH82 cells; [4]): > 1 µM; IC50 (MV4;11 cells; [5]): 0.1 to 1 µM; IC50 (Daudi cells; [6]): > 1 µM; IC50 (HT-29 cells; HT-29, 72 h): > 1 µM
10 | CC[C@@H]1C(=O)N(C)c2cnc(Nc3ccc(C(=O)NC4CCN(CCOCC[C@@H](N)C(=O)Nc5cccc6c5CN(C5CCC(=O)NC5=O)C6=O)CC4)cc3OC)nc2N1C1CCCC1 (some centres unmarked) [Compound 863] | > 1 | ≤ 1 | 0.1 to 1 | 0.1 to 1 | > 1 | –
11 | CC[C@@H]1C(=O)N(C)c2cnc(Nc3ccc(C(=O)NC4CCN(CCOCCO)CC4)cc3OC)nc2N1C1CCCC1 [Compound 864] | ≤ 0.1 | ≤ 1 | ≤ 0.1 | ≤ 0.1 | ≤ 0.3 | –
12 | CC[C@@H]1C(=O)N(C)c2cnc(Nc3ccc(C(=O)NC4CCN(CCO)CC4)cc3OC)nc2N1C1CCCC1 [Compound 865] | ≤ 0.1 | ≤ 1 | ≤ 0.1 | ≤ 0.1 | ≤ 0.3 | –
13 | NC(=O)c1ccccc1Nc1nc(Nc2ccc(C3CCN(C(=O)N[C@H]4CC[C@@H](N[C@H]5C[C@H](C#Cc6ccc7c(c6)CN(C6CCC(=O)NC6=O)C7=O)C5)CC4)CC3)cc2)ncc1Cl (some centres unmarked) [UB-181198] | – | – | – | – | – | IC50 (PC-3): 0.01 to 0.1 µM; IC50 (MDA-MB-231 cells): 0.01 to 0.1 µM; IC50 (NCIH82 cells; NCI-H82, NCI-H82 cells, read-out: Inhibitory activity IC50 on NCI-H82): 0.01 to 0.1 µM; IC50 (MV4;11 cells; MV4-11, MV4;11 cells, read-out: Inhibitory activity IC50 on MV4;11): < 0.01 µM; IC50 (Daudi cells; Daudi cells, read-out: Inhibitory activity IC50 on Daudi): 0.01 to 0.1 µM

More lines, main results first:

Row | IC50 (U-87MG cells; U-87MG cells) [µM] | IC50 (NCIH82 cells; [1]) [µM] | IC50 (MV4;11 cells; [2]) [µM] | IC50 (Daudi cells; [3]) [µM] | IC50 (HT-29 cells; HT-29 cells, 72 h) [µM] | Compound | further results
14 | 0.1 to 0.5 | ≤ 1 | ≤ 0.1 | ≤ 0.1 | ≤ 0.3 | CC[C@@H]1C(=O)N(C)c2cnc(Nc3ccc(C(=O)NC4CCN(CCOCCN)CC4)cc3OC)nc2N1C1CCCC1 [Compound 866] | –
15 | 0.5 to 1 | ≤ 1 | ≤ 0.1 | ≤ 0.1 | 0.3 to 1 | CC[C@@H]1C(=O)N(C)c2cnc(Nc3ccc(C(=O)NC4CCN(CCOCCNC5(C(=O)Nc6cccc7c6CN(C6CCC(=O)NC6=O)C7=O)CC5)CC4)cc3OC)nc2N1C1CCCC1 (some centres unmarked) [Compound 867] | –
16 | 0.5 to 1 | ≤ 1 | 0.1 to 1 | 0.1 to 1 | > 1 | CC[C@@H]1C(=O)N(C)c2cnc(Nc3ccc(C(=O)NC4CCN(CCOCCN5CC(Nc6cccc7c6C(=O)N(C6CCC(=O)NC6=O)C7=O)C5)CC4)cc3OC)nc2N1C1CCCC1 (some centres unmarked) [Compound 868] | –
17 | 0.1 to 0.5 | ≤ 1 | ≤ 0.1 | 0.1 to 1 | > 1 | CC[C@@H]1C(=O)N(C)c2cnc(Nc3ccc(C(=O)NC4CCN(CCOCCNCC(O)C#Cc5cccc6c5CN(C5CCC(=O)NC5=O)C6=O)CC4)cc3OC)nc2N1C1CCCC1 (some centres unmarked) [Compound 869] | –
18 | > 1 | > 1 | 0.1 to 1 | > 1 | > 1 | CC[C@@H]1C(=O)N(C)c2cnc(Nc3ccc(C(=O)NC4CCN(CCOC[C@@H](N)C(=O)Nc5cccc6c5CN(C5CCC(=O)NC5=O)C6=O)CC4)cc3OC)nc2N1C1CCCC1 (some centres unmarked) [Compound 870] | –
19 | > 1 | ≤ 1 | 0.1 to 1 | > 1 | > 1 | CC[C@@H]1C(=O)N(C)c2cnc(Nc3ccc(C(=O)NC4CCN(CCOCCOC[C@H](N)C(=O)Nc5cccc6c5CN(C5CCC(=O)NC5=O)C6=O)CC4)cc3OC)nc2N1C1CCCC1 (some centres unmarked) [Compound 871] | –
20 | 0.5 to 1 | > 1 | – | 0.1 to 1 | > 1 | CC[C@@H]1C(=O)N(C)c2cnc(Nc3ccc(C(=O)NCCOCCNCCOCCC#Cc4cccc5c4CN(C4CCC(=O)NC4=O)C5=O)cc3OC)nc2N1C1CCCC1 (some centres unmarked) [Compound 896] | –
